Data as given in the supplement of paper PMC10307832.

Compound: CN1CCN(CC1)C2=CC(=C(C=C2)NC3=NC=C4C(=N3)N(C5=CC=CC=C5C(=O)N4C)C)OC [XMD8-85] + CS(=O)(=O)N1CCN(Cc2cc3nc(-c4cccc5[nH]ncc45)nc(N4CCOCC4)c3s2)CC1 [Pictilisib] (partner 1 µM)
Assay: relative viability (nuclei count vs DMSO), 5 days (fraction); higher = more cells survive
Conditions: first compound 8 µM
Outline: (§1)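 One day after seeding in 1536-well plates, lung cancer cell lines were dosed by pin tool. Dosing was either single-drug or a fixed anchor-drug dose plus five library-drug doses (not always all listed) in √10 steps. After 5 days, nuclei were stained in one fix-and-stain step and counted on 4× images, and relative viability is the nuclei count of treated wells over that of vehicle wells, given as the median of duplicate plates.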

Going from A-427 to BEN, the relative viability falls from 0.527 to 0.38.

Going from CAL-12T to COR-L23, the relative viability rises from 0.321 to 0.577.

Compared with COR-L 105, Calu-6 is higher in relative viability: 0.303 for the first, 0.572 for the second.

Going from ChaGo-K-1 to EBC-1, the relative viability falls from 0.303 to 0.18.

Going from EKVX to EMC-BAC-2, the relative viability rises from 0.441 to 0.451.

Going from EPLC-272H to H3255, the relative viability rises from 0.267 to 0.414.

Going from HARA to HCC-15, the relative viability rises from 0.259 to 0.616.

First: HCC-44
Second: HCC-78
The relative viability of the first is higher: 0.452 for the first, 0.192 for the second.

Compared with HCC-366, HCC-827 is higher in relative viability: 0.304 for the first, 1.15 for the second.

Going from HOP-62 to IA-LM, the relative viability falls from 0.232 to 0.143.

Going from LC-2-ad to LCLC-97TM1, the relative viability falls from 0.276 to 0.177.

First: LCLC-103H
Second: LK-2
The relative viability of the first is higher: 0.462 for the first, 0.458 for the second.

Compared with LOU-NH91, LU99A is lower in relative viability: 0.471 for the first, 0.33 for the second.

For NCI-H441, the relative viability was 0.389.

Compound: O=C(O)C(Cc1ccccc1[N+](=O)[O-])=NNc1nc(-c2ccc(Cl)c(Cl)c2)cs1 (mixture of isomers) [4EGI-1] + CS(=O)(=O)CCNCc1ccc(-c2ccc3ncnc(Nc4ccc(OCc5cccc(F)c5)c(Cl)c4)c3c2)o1 [Lapatinib] (partner 2 µM)
Assay: as above
Conditions: first compound 0.5 µM
Outline: as §1

Going from 201T to A549, the relative viability rises from 1.04 to 1.15.

Compared with A-427, ABC-1 is lower in relative viability: 1.11 for the first, 1.06 for the second.

Going from BEN to COR-L23, the relative viability rises from 0.786 to 1.13.

Going from COR-L 105 to Calu-6, the relative viability rises from 0.421 to 1.07.

First: EBC-1
Second: EKVX
The relative viability of the first is lower: 0.205 for the first, 0.222 for the second.

First: EMC-BAC-2
Second: EPLC-272H
The relative viability of the first is higher: 1.06 for the first, 1.03 for the second.

Going from H3255 to HARA, the relative viability rises from 0.254 to 0.697.

Compared with HCC-15, HCC-44 is higher in relative viability: 0.949 for the first, 0.985 for the second.

Going from HCC-78 to HCC-366, the relative viability rises from 0.842 to 1.03.

Going from HCC-827 to HOP-62, the relative viability rises from 0.197 to 1.06.

First: IA-LM
Second: LC-2-ad
The relative viability of the first is lower: 0.886 for the first, 0.988 for the second.

Compared with LCLC-97TM1, LK-2 is lower in relative viability: 1.28 for the first, 1.04 for the second.

Compared with LOU-NH91, LU99A is higher in relative viability: 0.807 for the first, 1.04 for the second.

Same assay, conditions: first compound 1.581 µM

Compared with 201T, A549 is higher in relative viability: 0.986 for the first, 1.04 for the second.

Going from A-427 to ABC-1, the relative viability rises from 0.728 to 1.46.

First: BEN
Second: COR-L23
The relative viability of the first is higher: 0.854 for the first, 0.826 for the second.

Going from COR-L 105 to Calu-6, the relative viability rises from 0.38 to 1.

Going from EBC-1 to EKVX, the relative viability falls from 0.246 to 0.17.

Going from EMC-BAC-2 to EPLC-272H, the relative viability falls from 0.744 to 0.501.

Going from H3255 to HARA, the relative viability rises from 0.228 to 0.732.

First: HCC-15
Second: HCC-44
The relative viability of the first is higher: 0.914 for the first, 0.802 for the second.

Compared with HCC-78, HCC-366 is higher in relative viability: 0.551 for the first, 0.632 for the second.

First: HCC-827
Second: IA-LM
The relative viability of the first is lower: 0.201 for the first, 0.589 for the second.

Cell Line LC-2-ad has a relative viability of 0.89.

Same assay, conditions: first compound 5 µM

Compared with 201T, A549 is higher in relative viability: 1.04 for the first, 1.09 for the second.

Compared with A-427, ABC-1 is higher in relative viability: 1.06 for the first, 1.24 for the second.

First: BEN
Second: CAL-12T
The relative viability of the first is higher: 0.734 for the first, 0.634 for the second.

Going from COR-L23 to COR-L 105, the relative viability falls from 0.981 to 0.371.

First: Calu-6
Second: EBC-1
The relative viability of the first is higher: 1.03 for the first, 0.201 for the second.

First: EKVX
Second: EMC-BAC-2
The relative viability of the first is lower: 0.184 for the first, 0.89 for the second.

Going from EPLC-272H to H3255, the relative viability falls from 0.909 to 0.259.

Going from HARA to HCC-15, the relative viability rises from 0.817 to 0.871.

Going from HCC-44 to HCC-78, the relative viability falls from 0.929 to 0.752.

First: HCC-366
Second: HCC-827
The relative viability of the first is higher: 1.02 for the first, 0.15 for the second.

Compared with HOP-62, IA-LM is lower in relative viability: 1.08 for the first, 0.581 for the second.

First: LC-2-ad
Second: LCLC-97TM1
The relative viability of the first is lower: 0.942 for the first, 1.16 for the second.

Going from LK-2 to LOU-NH91, the relative viability falls from 0.978 to 0.822.

In the case of LU99A, the relative viability is reported as 1.08.

Same assay, conditions: first compound 15.81 µM

Compared with 201T, A549 is lower in relative viability: 1.02 for the first, 0.77 for the second.

Going from A-427 to ABC-1, the relative viability rises from 0.997 to 1.17.

Compared with BEN, CAL-12T is higher in relative viability: 0.573 for the first, 0.701 for the second.

Compared with COR-L23, COR-L 105 is lower in relative viability: 0.536 for the first, 0.343 for the second.

Going from Calu-6 to EBC-1, the relative viability falls from 1 to 0.217.

Compared with EKVX, EMC-BAC-2 is higher in relative viability: 0.204 for the first, 0.913 for the second.

Compared with EPLC-272H, H3255 is lower in relative viability: 0.624 for the first, 0.222 for the second.

Compared with HARA, HCC-15 is higher in relative viability: 0.724 for the first, 0.8 for the second.

Going from HCC-44 to HCC-78, the relative viability falls from 0.809 to 0.788.

Going from HCC-366 to HOP-62, the relative viability falls from 1.03 to 0.961.

Compared with IA-LM, LC-2-ad is higher in relative viability: 0.109 for the first, 0.228 for the second.

Compared with LCLC-97TM1, LK-2 is higher in relative viability: 0.801 for the first, 0.984 for the second.

Compared with LOU-NH91, LU99A is lower in relative viability: 0.787 for the first, 0.739 for the second.

Same assay, conditions: first compound 50 µM

Compared with 201T, A549 is lower in relative viability: 0.659 for the first, 0.0791 for the second.

Going from A-427 to ABC-1, the relative viability rises from 0.6 to 1.16.

Going from BEN to CAL-12T, the relative viability falls from 0.612 to 0.529.

Going from COR-L23 to COR-L 105, the relative viability rises from 0.14 to 0.293.

First: Calu-6
Second: EBC-1
The relative viability of the first is higher: 0.206 for the first, 0.166 for the second.

First: EKVX
Second: EMC-BAC-2
The relative viability of the first is lower: 0.18 for the first, 0.88 for the second.

Compared with EPLC-272H, H3255 is lower in relative viability: 0.39 for the first, 0.279 for the second.

First: HARA
Second: HCC-15
The relative viability of the first is lower: 0.257 for the first, 0.423 for the second.

Compared with HCC-44, HCC-78 is higher in relative viability: 0.366 for the first, 0.947 for the second.

Going from HCC-366 to HCC-827, the relative viability rises from 0.134 to 0.168.

Compared with HOP-62, IA-LM is lower in relative viability: 0.362 for the first, 0.0728 for the second.

Going from LC-2-ad to LCLC-97TM1, the relative viability rises from 0.175 to 0.274.

Compared with LK-2, LOU-NH91 is lower in relative viability: 0.745 for the first, 0.552 for the second.

Work on LU99A yielded a relative viability of 0.214.
